Entries after “also recorded” stand apart in the source; their conditions may differ.
Columns and labels:
[1] = system: myelin basic protein induced EAE; assay: Experimental allergic encephalomyelitis (EAE), Th1 adjuvant activity; assay type: in vivo, guinea pigs; settings: for Th1 stimulation (EAE): guinea pigs sensitized with bovine MBP in IFA + compound, FIG. 31
[2] = system: Friend leukemia virus (FLV); assay: Friend leukemia virus infection: survival, TER-119+ cells, spleen; settings: for survival, late phase (days 55 and 59), long-term / survival, early phase (day 43): 10 μmol i.p., non-liposomal, FIG. 23; for survival, late phase (days 55 and 59), long-term: control 0%; for survival, early phase (day 43): saline control 82%; for clonal expansion of TER-119+ erythroleukaemia cells in spleen / spleen size (weight): day 16; for clonal expansion of TER-119+ erythroleukaemia cells in spleen: FIG. 24; for spleen size (weight): FIG. 25
[3] = Survival after lethal irradiation (10 Gy); assay type: in vivo, mice (strain ICR); settings: 200 nmol s.c. 24 h before 10 Gy; FIG. 37
Description: Preparations (200 nmol of active substance) were applied to mice (strain ICR, female, 3 months of age, 10 mice per group) by s.c. route 24 h before irradiation (radiation dose of 10 Gy from a ^60Co gamma-ray source at a dose rate of 0.285 Gy/min). PBS and empty liposome served as negative controls, free and liposomal muramyl dipeptide (MDP) served as positive controls.

[4] = system: IFN-γ production in splenocytes stimulated by rHSP90; assay: Proteoliposome vaccine against C. albicans hsp90: cellular response (IFN-γ in splenocytes stimulated by rHSP90); assay type: in vivo, BALB/c mice; settings: Experiment 12.3; liposomal compound (5%) + Ni-HSP90, day 20; FIG. 14
Description: (§1) Proteoliposomes were prepared by coupling recombinant hsp90 antigen (r-hsp90, 6×HISTag) via a metal chelating lipid to liposomes containing muramyl glycopeptide derivatives as adjuvant component. BALB/c […] mice 4 to 5 weeks old (female 20±2 g, 5 animal per group) were immunized by the intradermal route either with 20 μg of free or liposomal r-hsp90 (volume of 60 μl) either with or without L18-norAbu-MDP and boosted 21 days later by the same composition of experimental vaccine. FCA was used as positive control r-hsp90. Liposomal vaccine composition 20 μg of rHSP90 antigen, 5% metallochelating lipid, 5% particular MT analogue, 90% phospolipids.
Production of INF-γ was mesured by standard ELISPOT assay (R&D, USA). Immunised mice were sacrified 4 weeks after booster imunisation and splenocytes were isolated, and stimulated by r-hsp90 (50 μg/ml) and spots were counted.
Proteoliposomes with muramyl glycopeptide derivatives were prepared as described above. Experimental conditions were as for Experiment 12.2.
Cell mediated immune response against rHSP90 antigen formulated in liposomal experimental vaccine was tested at day 20 (6 days after booster). Mice were sacrificed, splenocytes were purified and production of IFN-γ in splenocytes stimulated by rHSP90 was assayed by flow cytometry.

Salmonella enteritidis = assay: Stimulation of innate immunity against Salmonella Enteritidis; settings: for Day 6 Intest.: clear/infected/dead / Day 6 Liver: clear/infected/dead / Day 6 Lungs: clear/infected/dead / Day 6 Spleen: clear/infected/dead / Day 12 Intest.: clear/infected/dead / Day 12 Liver: clear/infected/dead / Day 12 Lungs: clear/infected/dead / Day 12 Spleen: clear/infected/dead: liposomal, 20 nmol per dose p.o. 72 and 24 h before infection (LD50), 5 mice
[5] = system: NK-sensitive YAC1 target cells; assay: NK cell-mediated cytotoxicity of spleen mononuclear cells, 51Cr-release against YAC1; settings: FLV-inoculated mice, day 16, 18 h incubation with YAC1; FIG. 26
[6] = system: NK sensitive K562 cell line; assay: NK cell cytotoxicity of human PBMC, 51Cr-release against K562; assay type: cell-based; settings: for dose response of NK cell activity: range 0.1 μM-100 μM, FIG. 28
Description: Ex vivo effects of test compounds on NK cells were evaluated on human peripheral blood mononuclear cells (PBMC). The NK cell cytotoxicity of healthy donors in the presence or absence of test compounds was measured in standard 4 hrs ^51Cr-release assay against NK sensitive K562 cell line in effector (PBMC) to target (K562) ratio 16:1. Test compounds were added at a concentration of 10^−7 mol/ml.
Testing of compounds 23, 24, 32, 33, 40 and 41 for their capacity to induce cell-mediated cytotoxicity of human eripheral blood mononuclear cells (PBMCs) is shown in FIGS. 27 and 28. All donors were healthy. […] The cytotoxicity of untreated controls (30.5%) was renormalized to 100%.

[7] = rabbits, liposomal preparations s.c. 100 nmol/kg, 3 rabbits per group; passes if below 1.1° C.
Description: The test was conducted in an authorised laboratory, ITEST plus s.r.o., Bilé Vchýnice 10, 533 13 Vápno u Prelouce, Czech Republic, according to guide-lines CL 2005.
Rabbits (New Zeeland albino, 4-6 kg, 3 animals per group) were used for testing.
Liposomal preparations of muramyl glycopeptide derivatives were administered s.c. (100 nmol/kg). Empty liposomes were used as negative control and the liposomal as well as the free form of muramyl dipeptide (MDP) (25 μg/kg, corresponding to 50.7 nmol/kg) served as positive control. Temperature was measured in 1, 2, 3, 4,6 and 24 hour intervals.
Empty liposomes were used as negative control; and liposomal as well as free muramyl dipeptide (MDP) (50.7 nmol/kg) served as positive control. B30-norAbu-MDP (MT01, structure on page 5) served as additional control. Temperature was measured in 1, 2, 3, 4, 6 and 24 h intervals. The preparation passed the test if the Sum of ΔTmax remained below 1.1° C. (3 rabbits per group)

[8] = system: r-hsp90 (Candida albicans hsp90) specific IgG antibodies; assay: Proteoliposome vaccine against C. albicans hsp90: antibody (humoral) response, ELISA; assay type: in vivo, BALB/c mice; settings: Experiment 12.2; liposomal compound (5%) + Ni-HSP90, boost day 14; FIG. 13
Description: as §1
Blood samples were collected from the tail vein into heparinised capillary PCV tubes. After centrifugation, the upper part of the tube, containing […] blood serum, was cut off, thrown into […] diluting solution and thoroughly shaken. Thus, a basic dilution of 1:33 was obtained. The pre-diluted sera were kept at −20° C. Blood samples were collected before the first immunization, 2 weeks thereafter and subsequently at weekly intervals up to the 4th week after the second immunisation. Specific IgG antibodies in blood serum samples were determined by the standard indirect ELISA procedure. The data obtained were processed statistically using the non-parametric Mann-Whitney U-test.
Proteoliposomes with muramyl glycopeptide derivatives were prepared as described above, but the boost was carried out already after 14 days. The liposomal vaccine composition was as for Experiment Set 1: 20 μg of rHSP90 antigen, 5% metallochelating lipid, 5% particular MT analogue, 90% phospolipids.
Controls: Aluminum hydroxide (AlOH) and Freund complete adjuvans (FCA) were used as positive controls. PBS with empty liposomes was used as negative control (control). Humoral response was tested at day 14 after vaccination (post priming) and at day 20 after vaccination (post booster). Antibody titres were wer assayed by ELISA.

[9] = system: GM-CFC progenitors in bone marrow; assay: GM-CFC recovery, test compounds after sub-lethal irradiation; assay type: in vivo, ICR/CD-1 mice; settings: s.c. 100 nmol 24 h after 6 Gy, FIG. 36
Description: Institite of Cancer Research (ICR/CD-1) mice (female, age of 3 months, 3-4 per group) were stimulated by s.c. administration of test compounds (volume of 200 μl, 100 nmol per dose) 24 h before sublethal γ-irradiation (6 Gy, ^60Co γray source Chisostat, Chirana Ltd., Czech Republic, at a dose of 0.285 Gy/min.). Mice were sacrified at day 13 and recovery of GM-CFC in femour was assayed by counting of colonies (CFC) formed after cultivation in medium. Non-irradiated mice were used as control for normal GM-CFC count in femour. PBS and empty liposomes were used as controls for spontaneous recovery. Liposomal MDP was used as reference standard.
The following parameters of hemopoiesis were evaluated: • a) Blood leukocyte counts and bone marrow cellularity. Blood leukocytes (samples of blood drawn from an incision of the tail vein) and nucleated cell elements of the femoral bone marrow (femoral diaphyses flushed with saline) were estimated by means of Coulter Counter (Model ZN, Coulter Electronics). • b) Colony-forming cells in spleen. Endogenous spleen colony-forming units (E-CFUs) were measured on day 9 post the whole-body irradiation with 6.5 Gy (5 mice per group) according to Till and McCulloch. • c) GM-CFC progenitors in bone marrow. Femoral bone marrow cells were obtained from mice by flushing the femour with sterile IMDM medium. Harvested cells were calculated and diluted to 1.5×10^5 cells/ml and plated in triplicate in a semisolid environment created by plasma clot (Iscovess modification of Dulbecco's medium, 20% of fetal calf serum, 10% of colony-stimulating factor, 10% of citrate plasma, and CaCl2 1.5 mg/ml). The cultures were incubated for 7 days at 37° C. in 5% CO2. Colonies of at least 50 cells were scored at 40× magnification.
The method is exactly as described above except that the test compounds (volume of 200 μl, 100 nmol per dose) were administered 24 h after sublethal γ-irradiation (6 Gy).

[10] = system: tetanus toxoid (TaT) specific IgG antibodies; set-up: species or system BALB/c mice; settings: mouse, in vivo, sc

Row | SMILES | Th1 stimulation (EAE) [1] | survival, early phase (day 43) [2] | clonal expansion of TER-119+ erythroleukaemia cells in spleen [2] | spleen size (weight) [2] | Day 6 Intest.: clear/infected/dead (Salmonella enteritidis) | Day 6 Liver: clear/infected/dead (Salmonella enteritidis) | Day 6 Lungs: clear/infected/dead (Salmonella enteritidis) | Day 6 Spleen: clear/infected/dead (Salmonella enteritidis) | Day 12 Intest.: clear/infected/dead (Salmonella enteritidis) | Day 12 Liver: clear/infected/dead (Salmonella enteritidis) | Day 12 Lungs: clear/infected/dead (Salmonella enteritidis) | Day 12 Spleen: clear/infected/dead (Salmonella enteritidis) | dose response of NK cell activity [6] | +ΔTmax (Sum of ΔTmax) [7] [°C] | also measured
1 | CCCCCCCCCCCCCCC(CCCCCCCCCCCCCC)C(=O)N[C@H]1[C@H](O[C@H]2[C@H](OCC(=O)N[C@@H](CC)C(=O)N[C@H](CCC(=O)O)C(N)=O)[C@@H](NC(C)=O)C(O)O[C@@H]2CO)O[C@H](CO)[C@@H](O)[C@@H]1O (stereo partly drawn) [Compound 24, N-{2-O-[2-deoxy-2-(2-tetradecyl-hexadecanoylamino)-β-D-gluco-pyranosyl-(1→4)-2-acetamido-2,3-dideoxy-α-D-glucopyranosid-3-yl]glycoloyl}-L-α-aminobutanoyl-D-isoglutamine] | strongest effect on Th1 stimulation | survival rate worse than control | pronounced opposite effect | spleen size slightly lower than the control | 4/1/0 | 3/2/0 | 4/1/0 | 3/2/0 | 3/1/1 | 3/1/1 | 4/0/1 | 3/1/1 | negative dose response | 0.7 | survival, late phase (days 55 and 59), long-term ([2]; listed as substance 24): 30%; survival of lethally irradiated mice [3]: smaller survival benefit; cell-mediated response to r-hsp90 proteoliposomes [4]: strong Th1-type responses; protective effect / survival rate in S. Enteritidis infection (Salmonella enteritidis; 0 or 1 case of death by day 12): good protective effects; NK cell activity (cell-mediated cytotoxicity of SMCs) [5]: inhibitory effect; lag time to reach full NK stimulating activity ([6]; no vs 18 h pre-incubation): most pronounced; antibody response to r-hsp90 proteoliposomes [8]: weak to non-existent antibody responses; also recorded: virtually no Th2-type response
2 | CCCCCCCCCCCCCCCCCC(=O)N[C@H]1[C@H](O[C@H]2[C@H](OCC(=O)N[C@@H](CC)C(=O)N[C@H](CCC(=O)O)C(N)=O)[C@@H](NC(C)=O)C(O)O[C@@H]2CO)O[C@H](CO)[C@@H](O)[C@@H]1O (stereo partly drawn) [Compound 23, N-[2-O-(2-deoxy-2-stearoylamino-β-D-glucopyranosyl-(1→4)-2-acetamido-2,3-dideoxy-α-D-glucopyranosid-3-yl)-glycoloyl]-L-α-aminobutanoyl-D-isoglutamine] | superior to MDP and GMDP as Th1 adjuvants | survival not worse than control at day 43 | positive effect on clonal expansion | increased spleen size | 2/3/0 | 0/5/0 | 1/4/0 | 0/5/0 | 1/2/2 | 1/2/2 | 1/2/2 | 1/2/2 | positive dose response | 0.7 | Positive animals (%) (incidence of EAE) ([1]; 50 μg myelin basic protein + 1 mg test compound in FIA, footpads, up to day 21, FCA positive control): 86%; survival, late phase (days 55 and 59), long-term [2]: clearly worse at day 55; survival, early phase (day 43) ([2]; listed as compound 23): slightly better than saline control; % of survivors on day 45 ([2]; 52 infected mice, non-liposomal compound i.p. day −10 and −3, infected non-treated 23): 45%; GM-CFC progenitor cells in bone marrow [9]: strongest effect; GM-CFC progenitor cells in bone marrow ([9]; listed as compound 23): strongest performers; anti-TaT antibody response [10]: did not show a significant antibody response; anti-TaT antibody response (adjuvant activity) [10]: Strong adjuvant activity

Source: patent US8653049B2, “Normuramyl glycopeptide compounds” (priority 2008, dated 2014)
